Three molecules from ChEMBL document CHEMBL1133423, “Synthesis, DNA binding, topoisomerases inhibition and cytotoxic properties of 4-arylcarboxamidopyrrolo-2-carboxyanilides” (Bioorg Med Chem Lett, 2000) can be followed below.

One assay deals with Nucleic Acid. The assay can be described thus: Binding affinity of compound for calf thymus DNA was determined. The class given is nucleic-acid assay. To be noted: Bos taurus.
A further assay has as its system HL-60. Put plainly: Antiproliferative activity of compound against HL60 leukemia cells. It counts as functional, cell-based. To be noted: Homo sapiens.

For `Cn1cc(NC(=O)c2ccc(CN)cc2)cc1C(=O)Nc1ccc(CN)cc1`, in the assay on Nucleic Acid, the Ka worked out at 680000 M⁻¹. Also, the IC50 in the assay on HL-60 is 5.4 µM.

In turn, `NCc1ccc(NC(=O)c2cc(NC(=O)c3ccc(CN)cc3)c[nH]2)cc1` displayed a Ka with Nucleic Acid of 950000 M⁻¹. The same molecule gave a concentration for half-maximal inhibition (IC50) in the assay on HL-60 of 1.7 µM.

In the assay on Nucleic Acid, `NCc1ccc(NC(=O)c2cc(NC(=O)c3ccc(CN)cc3)cn2Cc2ccccc2)cc1` yielded a Ka of 340000 M⁻¹. The IC50 in the assay with HL-60 was found to be 8.2 µM.
